Where two headings read alike, the source gives them in different places.
How the values were obtained:
broiler CYP2E1 = experiment: Probe substrate assay of CYP2E1 activity in broiler liver microsomes; format: in vitro ADME
Procedure: Probe drugs: a volume of 0.2 mL cold acetonitrile were added into 0.05 mL microsome incubation solution, then vortexed for 2 min to extract target compounds. […] The supernatant was filtered through a 0.2 μm filter.

broiler CYP2A6 = format: in vitro ADME; details: microsomes
Procedure: (§1) Probe drugs: a volume of 0.2 mL cold acetonitrile were added into 0.05 mL microsome incubation solution, then vortexed for 2 min to extract target compounds. The mixture was centrifuged at 12,000 rpm for 15 min. The supernatant was filtered through a 0.2 μm filter.

P-gp [1] = experiment: mRNA and protein expression of P-gp in liver and small intestine of treated broilers; format: in vivo, broiler; details: single gavage compared with the saline group
Procedure: (§2) The relative expressions of CYP3A4, P-gp and BCRP in tissue of broiler and Caco-2 were evaluated via quantitative real-time PCR (RT–qPCR, Bio-Rad, Hercules, CA, USA). […] Relevant cells were treated as indicated and total RNA was extracted from cells and tissue using RNA isolater Total RNA Extraction Reagent (R401-01, Vazyme Biotech Co., Ltd., Nanjing, China) following the manufacturer’s protocols, then reverse-transcribed into cDNA using HiScript II Q Select RT SuperMix for Qpcr (R233-01, Vazyme Biotech Co., Ltd.). The cDNA was determined by quantitative RT-PCR using 2 × AceQ qPCR SYBR Green Master Mix (Q141-02, Vazyme Biotech Co., Ltd.) with the primers (listed in Supplementary Tables S1 and S2). All data were analyzed using the 2−ΔΔCt method.
(§3) These were then collected in a RIPA lysis buffer (P0013B, Beyotime, Shanghai, China) and incubated on a rocker with ice for 30 min. […] Proteins were transferred into a polyvinylidene fluoride (PVDF) membrane (Bio-Rad) and then incubated with the CYP3A4 Rabbit pAb (Cat#A2544, ABclonal, Wuhan, China), ABCG2 Rabbit pAb (Cat#A5661, ABclonal, Wuhan, China), P-gp Rabbit pAb (Cat#A11747, ABclonal, Wuhan, China) over night, respectively. […] The immunoreactive bands were visualized on a gel imaging system (Tanon 5200 Multi, Tanon Technology Co., Ltd., Shanghai, China), and the intensities of the immunoreactive bands were quantified using Quantity One.

CYP3A4 (broiler) = experiment: Probe substrate (testosterone) assay of CYP3A4 activity in broiler liver microsomes; format: in vitro ADME; details: chicken (broiler)
Procedure: as §1
(§4) […]. […] Except for testosterone, which was incubated for 30 min, all other probe drugs were incubated for 4 h.

in vivo = details: po, 6 mg/kg
Procedure: (§6) Mobile phase compositions were 0.5 mol/L H3PO4-triethylamine (pH = 2.4, phase A) and acetonitrile (phase B) (82:18, v/v) [1, 18].
(§7) SAL (Shandong Lukang, Jining, China): The LC-MS/MS assay method for SAL were introduced in the previous research [21]. The separate system of HPLC used 0.1% formic acid solution (phase A) and methanol (phase B) as mobile phase. […] Positive ion scanning mode was used; DP, CE, and CXP are 59.1 V, 65.64 V, and 12 V, respectively.
(§8) Plasma sample: Add 0.8 mL of acetonitrile to 0.2 mL of plasma to precipitate proteins. After vortexing the mixture for 5 min, centrifuge at 12,000 rpm for 10 min. Transfer the supernatant to a new 10 mL tube. The supernatant was blown dry with nitrogen at 40 °C, and the pellet was redissolved with 1 mL of methanol. The methanol reconstituted solution was filtered through a 0.2 μm filter.
(§9) PK parameters were calculated with WinNonlin software using non-compartmental settings (version 6.4; Pharsight Corporation, Mountain View, CA, USA).

human P-gp = tested on: human P-gp; set-up: method as in PMID 21573958; details: compared with P-gp inhibitor verapamil (Ver); cited from earlier work
P-gp [2] = tested on: P-gp; set-up: method as in PMID 30989413; details: cited from earlier work
[3] = in vivo, po, 6 mg/kg
Procedure: as §6, §7, §8, §9

BCRP [4] = experiment: mRNA and protein expression of BCRP in liver and small intestine of treated broilers; format: in vivo, broiler
Procedure: as §2, §3

broiler CYP3A4 = experiment: Probe substrate (testosterone) assay of CYP3A4 activity in broiler liver microsomes; format: in vitro ADME
Procedure: as §1, §4

P-gp [5] = experiment: P-gp gene and protein expression in Caco-2 cells (qPCR, WB); format: cell-based, human; details: ENR 5 and 20 μmol/L, SAL 0.5 and 2 μmol/L; 12 or 24 h
Procedure: as §2
(§5) These were then collected in a RIPA lysis buffer (P0013B, Beyotime, Shanghai, China) and incubated on a rocker with ice for 30 min. Cell and tissue lysates were centrifuged at 12,000× g/4 °C for 15 min and lysates were boiled at 100 °C for 5 min in 5× SDS Loading Buffer and resolved by SDS-PAGE. […] The immunoreactive bands were visualized on a gel imaging system (Tanon 5200 Multi, Tanon Technology Co., Ltd., Shanghai, China), and the intensities of the immunoreactive bands were quantified using Quantity One.

CYP3A4 [6] = experiment: Screening of CYP450 enzymes that metabolize SAL and ENR with positive inhibitors (KCZ) in broiler liver microsomes; format: in vitro ADME; details: 50 μmol/L ENR; 0.5 mg/mL broiler liver microsomes; KCZ pre-incubated 30 min at 41 °C, then 4 h
Procedure: as §1
Briefly, alpha-naphthoflavone (α-NIF, inhibitor of CYP1A2), sulfafenpyrazole (SUl, CYP2D6), sodium diethyldithiocarbamate (DIE, inhibitor of CYP2E1), omeprazole (OMP, inhibitor of CYP2C45) and ketoconazole (KCZ, inhibitor of CYP3A4) were incubated with 50 μmol/L SAL or the ENR-NADPH system, respectively. The system consisted of 0.5 mg/mL broiler liver microsomes, 0.05 mmol/L Tris-HCl buffer, and 1 mmol/L NADPH.

CYP3A4 [7] = experiment: mRNA (RT-qPCR) and protein (Western blot) expression of hepatic CYP3A4 in treated broilers; format: in vivo
Procedure: as §2
These were then collected in a RIPA lysis buffer (P0013B, Beyotime, Shanghai, China) and incubated on a rocker with ice for 30 min. Cell and tissue lysates were centrifuged at 12,000× g/4 °C for 15 min and lysates were boiled at 100 °C for 5 min in 5× SDS Loading Buffer and resolved by SDS-PAGE. Proteins were transferred into a polyvinylidene fluoride (PVDF) membrane (Bio-Rad) and then incubated with the CYP3A4 Rabbit pAb (Cat#A2544, ABclonal, Wuhan, China), ABCG2 Rabbit pAb (Cat#A5661, ABclonal, Wuhan, China), P-gp Rabbit pAb (Cat#A11747, ABclonal, Wuhan, China) over night, respectively. They were then incubated with the HRP Goat Anti-Rabbit IgG (Cat#AS014, ABclonal, Wuhan, China) for 1.5 h. Immobilon Western Chemiluminescent HRP Substrate (Millipore) was used for protein detection. The immunoreactive bands were visualized on a gel imaging system (Tanon 5200 Multi, Tanon Technology Co., Ltd., Shanghai, China), and the intensities of the immunoreactive bands were quantified using Quantity One.

BCRP [8] = experiment: BCRP gene and protein expression in Caco-2 cells (qPCR, WB); format: cell-based, human; details: ENR 5 and 20 μmol/L; 12 and 24 h; concentration- and time-dependent
Procedure: as §2, §5

[9] = Pharmacokinetic studies of ENR and SAL in broilers (plasma, non-compartmental); details: for AUC(0-t) / AUC(0-inf) / Cmax / k el / MRT last / MRT inf / Tmax / half-life: AA broiler, plasma, po, 7.5 mg/kg, n=6, Mean ± SD; for AUC(0-t): AUC0-36h; for AUC(0-t) / AUC(0-inf) / Cmax / k el / MRT last / MRT inf / Tmax: broiler plasma; for AUC(0-inf): AUC0-∞; for k el: Ke; for MRT last: MRT0-36h; for MRT inf: MRT0-∞; for half-life: t1/2, broiler plasma;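 for all read-outs here: plasma drug levels measured by HPLC or LC-MS/MS, with PK parameters obtained through non-compartmental analysis in WinNonlin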
Procedure: as §6, §7, §8, §9

[10] = SAL (5 d) + ENR: SAL 60 mg/kg mixed feeding 5 days, then ENR 7.5 mg/kg gavage
[11] = SAL + ENR: ENR 7.5 mg/kg + SAL 6.0 mg/kg co-gavage
[12] = abstract, broilers, group not given

## CC[C@@H](C(=O)[C@@H](C)[C@@H](O)[C@H](C)CCc1ccc(C)c(O)c1C(=O)O)[C@H]1O[C@](CC)([C@H]2CC[C@](O)(CC)[C@H](C)O2)C[C@@H]1C [LAS, lasalocid]
Broiler CYP2E1
  effect on CYP2E1 activity: inductive effects

## CC[C@@H](C(=O)[C@@H](C)[C@@H](O)[C@H](C)[C@@H]1O[C@@H]([C@@H](CC)C(=O)O)CC[C@@H]1C)[C@H]1O[C@]2(C=C[C@@H](O)[C@]3(CC[C@@](C)([C@H]4CC[C@](O)(CC)[C@H](C)O4)O3)O2)[C@H](C)C[C@@H]1C [SAL, salinomycin]
Broiler CYP2A6
  effect on CYP2A6 activity: inductive effects
P-gp [1]
  effect on P-gp gene expression levels in the liver and small intestine: suppress
CYP3A4 (broiler); broiler, microsomes
  inhibition at 30 min, 100 µmol/L: 52%
In vivo; AA broiler, Ke
  k el: 1.39e-05 s⁻¹
In vivo; AA, Tmax
  Tmax: 0.42 ± 0.3 h
In vivo; AA, t1/2
  half-life: 14.2 ± 3.1 h
Human P-gp
  inhibition of human P-gp: effectively inhibit
P-gp [2]; 5 μM SAL, 30 min and 1 h
  effect on P-gp in A549 cells: no significant effect
P-gp [2]; SAL treatment for 72 h
  effect on expression of P-gp in A549 cells: significantly induced
[3]; AA broiler
  MRT0-48h: 5.53 ± 1.16 h
  MRT0-∞: 7.53 ± 2.39 h
[3]; AA
  AUC0-48h: 218.96 ± 42.32 ng·h/mL
  AUC0-∞: 264.78 ± 40.60 ng·h/mL
BCRP [4]; ENR + SAL group compared with single ENR group
  effect of SAL on expression of BCRP: significantly inhibited
BCRP [4]; SAL (5d) + ENR group compared with single ENR group
  effect of SAL on expression of BCRP: significantly induced

## CCN1CCN(c2cc3c(cc2F)c(=O)c(C(=O)O)cn3C2CC2)CC1 [ENR, Enrofloxacin]
Broiler CYP3A4; 0 and 3 min of pre-incubation
  effect on CYP3A4 at short pre-incubation: induced
Broiler CYP3A4; 100 μmol/L, pre-incubated 0, 3, 5, 15, 30 min
  dependence of CYP3A4 inhibition on pre-incubation time: time-dependent
Broiler CYP3A4; 50, 100 and 500 μmol/L
  dependence of CYP3A4 inhibition on concentration: concentration-dependent inhibitory effects
CYP3A4 (broiler); probe testosterone (TS), 100 µmol/L, pre-incubated 30 min at 41 °C, broiler liver microsomes, probe testosterone, read-out: inhibition rate on CYP3A4 (TS metabolism)
  inhibition at 30 min, 100 µmol/L: 32%
P-gp [5]
  gene and protein expressions of P-gp in Caco-2 cells: significantly decreased
CYP3A4 [6]
  decrease of ENR metabolic rate after addition of the CYP3A4-specific inhibitor KCZ: 32%
CYP3A4 [7]; ENR (5d) + SAL group contrasted with single SAL group
  effect of ENR on mRNA and protein levels of CYP3A4 in liver: significantly inhibited
CYP3A4 [7]; ENR + SAL group contrasted with single SAL group
  effect of ENR on CYP3A4 gene expression in liver: overexpression
CYP3A4 [7]; single gavage (ENR 7.5 mg/kg or SAL 6.0 mg/kg) compared with physiological saline group
  effect on protein expression of CYP3A4 in liver: induced
BCRP [8]
  expression of BCRP in Caco-2 cells: decreased
[9]; ENR (7.5 mg/kg) gavage alone
  AUC(0-t): 12800 ± 3990 ng·h/mL
  AUC(0-inf): 13500 ± 4080 ng·h/mL
  Cmax: 1490 ± 540 ng/mL
  k el: 1.94e-05 s⁻¹
  MRT last: 8.29 ± 1.03 h
  MRT inf: 10.8 ± 1.76 h
  Tmax: 1.5 ± 0.55 h
  half-life: 7.45 ± 1.71 h
[9]; [10]
  AUC(0-t): 15300 ± 1290 ng·h/mL
  AUC(0-inf): 16000 ± 1450 ng·h/mL
  Cmax: 1600 ± 160 ng/mL
  k el: 2.5e-05 s⁻¹
  MRT last: 8.35 ± 0.52 h
  MRT inf: 10.1 ± 0.9 h
  Tmax: 2.17 ± 1.03 h
  half-life: 8.13 ± 0.86 h
[9]; [11]
  AUC(0-t): 16700 ± 1290 ng·h/mL
  AUC(0-inf): 17500 ± 1450 ng·h/mL
  Cmax: 1480 ± 160 ng/mL
  k el: 2.5e-05 s⁻¹
  MRT last: 9.06 ± 0.52 h
  MRT inf: 10.6 ± 0.9 h
  Tmax: 2.67 ± 1.03 h
  half-life: 8.65 ± 0.54 h
[9]; [12]
  increase of area under the curve by SAL: 1.3 times
  increase of elimination half-life by SAL: 1.2 times
